In patent publication US20050130989A1, “N-arylheteroaromatic products compositions containing them and use thereof” (Aventis Pharma S. A., priority 2003, published 2005):
Read-outs that look alike come from different tables or passages of the source.

Legend:
HCT116 cells = assay: Inhibition of proliferation of the human colon tumor line HCT116 ([14C]-thymidine incorporation); assay type: cell-based; settings: Homo sapiens, read-out: Inhibition of HCT116 proliferation IC 50 (μm)
Method: The proliferation of HCT116 cells is evaluated by measuring the incorporation of [^14C]-thymidine in the following manner. The HCT 116 cells (obtained from the ATCC) are cultured in a DMEM medium (Gibco) containing 10% fetal calf serum and antibiotics (1% penicillin, 1% streptomycin). To perform the proliferation test, the cells are inoculated in cytostar 96-well microplates (Amersham), at a rate of 5000 cells per well. [^14C]-thymidine (0.1 μCi/well) and the products to be evaluated are then added. Variable concentrations of products up to 10 μm are used; the DMSO (solvent used to dissolve the products) should not exceed 0.5% in the medium. 48 hours after incubation at 37° C., the radioactivity incorporated into the cells is measured by counting the plate in a TRI-LUX counter (Wallac). The IC50 is defined as the concentration of product that reduces the radioactivity by 50% compared with an untreated control. A product whose IC50 is less than 3 μm is considered cytotoxic.

tubulin = biological target: T1, tubulin (Sus scrofa, UniProt P02550+P02554); assay: Evaluation of the inhibition of tubulin polymerization (turbidimetry); assay type: biochemical, pig; settings: tubulin 10 μm (1 mg/ml), 37° C., turbidity at 350 nm; concentration that inhibits the rate of polymerization by 50%; read-out: Inhibition of tubulin polymerization IC 50 (μm)
T1 construct: Tubulin is purified from pig brain according to published methods; from tissue; host or cells: pig brain
In short: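 Pig brain tubulin (>95% pure), 10 μm in MES pH 6.8/30% glycerol buffer plus 1 mM GTP and 6 mM MgCl2, with compound at 0.5–10 μm added before polymerization. Polymerization triggered by shift from 6° C to 37° C, followed by turbidity at 350 nm; IC50 is 50% inhibition of polymerization rate.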

[1] = HCT-116, 48 h, 48 hours at 37° C.

T1 sequence (P02550 whole entry): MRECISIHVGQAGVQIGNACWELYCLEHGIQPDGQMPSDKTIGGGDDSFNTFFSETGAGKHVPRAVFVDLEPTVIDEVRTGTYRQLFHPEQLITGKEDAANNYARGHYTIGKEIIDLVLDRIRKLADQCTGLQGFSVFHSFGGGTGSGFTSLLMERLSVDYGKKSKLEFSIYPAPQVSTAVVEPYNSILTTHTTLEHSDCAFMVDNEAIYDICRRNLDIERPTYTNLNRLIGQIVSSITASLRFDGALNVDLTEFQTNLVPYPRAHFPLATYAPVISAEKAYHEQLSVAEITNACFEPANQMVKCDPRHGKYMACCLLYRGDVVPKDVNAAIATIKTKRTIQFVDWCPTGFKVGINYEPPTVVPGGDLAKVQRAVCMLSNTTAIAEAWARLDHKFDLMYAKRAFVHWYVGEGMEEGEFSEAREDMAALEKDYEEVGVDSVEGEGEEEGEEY
T1 sequence (P02554 whole entry): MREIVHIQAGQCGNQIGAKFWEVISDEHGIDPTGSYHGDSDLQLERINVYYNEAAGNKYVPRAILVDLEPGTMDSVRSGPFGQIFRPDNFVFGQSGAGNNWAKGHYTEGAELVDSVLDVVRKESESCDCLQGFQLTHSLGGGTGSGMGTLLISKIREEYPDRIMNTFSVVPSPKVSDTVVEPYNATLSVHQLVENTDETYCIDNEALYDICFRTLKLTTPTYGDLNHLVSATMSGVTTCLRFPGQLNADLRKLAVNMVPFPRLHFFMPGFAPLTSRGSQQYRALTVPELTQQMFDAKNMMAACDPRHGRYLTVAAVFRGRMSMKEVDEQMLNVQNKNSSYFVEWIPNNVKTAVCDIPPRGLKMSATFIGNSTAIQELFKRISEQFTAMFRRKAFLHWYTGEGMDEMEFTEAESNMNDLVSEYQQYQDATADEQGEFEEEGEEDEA

IC50 (HCT116 cells; [1]) [µM]	IC50 (tubulin) [µM]	Compound	IC50 (HCT116 cells; HCT-116, 48 hours at 37° C.) [µM]
0.238	15	Cc1cc(C(=O)N2CCN(c3ccccc3C)CC2)n(-c2ccccc2F)n1 [3/87]	
0.0605	6	COc1ccc(Cl)cc1N1CCN(C(=O)c2cc(C)nn2-c2ccccc2F)CC1 [3/88]	
0.014	2.2	Cc1cc(C(=O)N2CCN(c3ccccc3)CC2)n(-c2cccc(F)c2)n1 [3/89]	
0.033	3	COc1ccccc1N1CCN(C(=O)c2cc(C)nn2-c2cccc(F)c2)CC1 [3/90]	
0.014	1.5	Cc1cc(C(=O)N2CCN(c3cccc(C(F)(F)F)c3)CC2)n(-c2cccc(F)c2)n1 [3/91]	
0.158	12.5	Cc1cc(C(=O)N2CCN(c3ccc(F)cc3)CC2)n(-c2cccc(F)c2)n1 [3/92]	
0.032	1.7	Cc1cc(C(=O)N2CCN(c3ccc(Cl)c(Cl)c3)CC2)n(-c2cccc(F)c2)n1 [3/93]	
0.032	0.8	Cc1cc(C(=O)N2CCN(c3cccc(C)c3C)CC2)n(-c2cccc(F)c2)n1 [3/94]	
0.164	3	CCc1ccccc1N1CCN(C(=O)c2cc(C)nn2-c2cccc(F)c2)CC1 [3/95]	
0.0036	1.8	COc1cccc(N2CCN(C(=O)c3cc(C)nn3-c3cccc(F)c3)CC2)c1 [3/96]	
0.083	3	CSc1ccccc1N1CCN(C(=O)c2cc(C)nn2-c2cccc(F)c2)CC1 [3/97]	
0.157	7	CCOc1ccccc1N1CCN(C(=O)c2cc(C)nn2-c2cccc(F)c2)CC1 [3/98]	
0.041	2	Cc1cc(C(=O)N2CCN(c3cccc(Cl)c3Cl)CC2)n(-c2cccc(F)c2)n1 [3/99]	
0.569	5	Cc1cc(C(=O)N2CCN(c3ccccc3)CC2)n(-c2ccc(F)cc2)n1 [3/101]	
0.181	13	COc1ccccc1N1CCN(C(=O)c2cc(C)nn2-c2ccc(F)cc2)CC1 [3/102]	
0.285	5	CCc1ccccc1N1CCN(C(=O)c2cc(C)nn2-c2ccc(F)cc2)CC1 [3/104]	
0.118	4.5	COc1ccc(-n2nc(C)cc2C(=O)N2CCN(c3cccc(OC)c3)CC2)cc1 [3/105]	
0.985	7	COc1ccc(-n2nc(C)cc2C(=O)N2CCN(c3cccc(Cl)c3Cl)CC2)cc1 [3/106]	
4.33	8	Cc1cccc(N2CCN(C(=O)c3cc(C)nn3-c3ccccc3)CC2C)c1 (stereo not shown) [3/109]	
1.52	15	Cc1cc(C(=O)N2CCN(c3ccccc3Cl)CC2)n(-c2ccccc2)n1 [3/112]	
0.075	1.2	Cc1cccc(-n2nc(C)cc2C(=O)N2CCN(c3ccc(Cl)c(Cl)c3)CC2)c1 [3/113]	
0.141	3	Cc1cccc(-n2nc(C)cc2C(=O)N2CCN(c3cccc(Cl)c3Cl)CC2)c1 [3/116]	
0.562	3.1	Cc1cc(C(=O)N2CCN(c3cccc(Cl)c3Cl)CC2)n(-c2ccc(F)cc2)n1 [3/119]	
0.051	3.3	Cc1cc(C(=O)N2CCN(c3cccc(C(F)(F)F)c3)CC2)n(-c2cccc(Cl)c2)n1 [3/121]	
0.051	3.3	Cc1cccc(N2CCN(C(=O)c3cc(C)nn3-c3cccc(Cl)c3)CC2)c1 [3/123]	
0.148	12.5	Cc1cc(C(=O)N2CCN(c3cccc(Cl)c3Cl)CC2)n(-c2cccc(Cl)c2)n1 [3/125]	
0.901	12	Cc1cc(C(=O)N2CCN(c3ccccc3C(F)(F)F)CC2)n(-c2cccc(Cl)c2)n1 [3/128]	
2.56	< 25	Cc1cc(C(=O)N2CCN(c3cccc(Cl)c3Cl)CC2)n(-c2ccc(Cl)cc2)n1 [3/129]	

IC50 (HCT116 cells; [1]) [µM]	IC50 (tubulin) [µM]	Compound	IC50 (HCT116 cells; HCT-116, 48 hours at 37° C.) [µM]
0.135	3.1	Cc1ccc(-n2nc(C)cc2C(=O)N2CCN(c3cccc(C(F)(F)F)c3)CC2)cc1 [3/131]	
3.1	20	Cc1ccc(-n2nc(C)cc2C(=O)N2CCN(c3cccc(Cl)c3Cl)CC2)cc1 [3/132]	
0.214	6.2	COc1cccc(-n2nc(C)cc2C(=O)N2CCN(c3cccc(C(F)(F)F)c3)CC2)c1 [3/133]	
0.321	6	COc1cccc(-n2nc(C)cc2C(=O)N2CCN(c3cccc(C)c3C)CC2)c1 [3/135]	
0.932	12.5	CCc1ccccc1N1CCN(C(=O)c2cc(C)nn2-c2cccc(OC)c2)CC1 [3/136]	
20	< 25	COc1cccc(-n2nc(C)cc2C(=O)N2CCN(c3cccc4ccccc34)CC2)c1 [3/138]	
1.35	< 25	COc1cccc(-n2nc(C)cc2C(=O)N2CCN(c3cccc(Cl)c3Cl)CC2)c1 [3/139]	
2.97	< 25	COc1cccc(-n2nc(C)cc2C(=O)N2CCN(c3ccc4c(c3)OCCO4)CC2)c1 [3/140]	
0.066	7	Cc1cc(C(=O)N2CCN(c3cccc(C)c3C)CC2)n(-c2ccccc2F)n1 [3/141]	
0.11	3.8	CCc1ccccc1N1CCN(C(=O)c2cc(C)nn2-c2ccccc2F)CC1 [3/142]	
0.14	2.5	Cc1cc(C(=O)N2CCN(c3cccc4ccccc34)CC2)n(-c2ccccc2F)n1 [3/143]	
1.51	10	Cc1cc(C(=O)N2CCN(c3ccccc3C(F)(F)F)CC2)n(-c2ccccc2F)n1 [3/145]	
0.043	1.3	Cc1cc(C(=O)N2CCN(c3ccc(Cl)c(Cl)c3)CC2)n(-c2ccc(F)cc2)n1 [3/146]	
1.29	7	Cc1cc(C(=O)N2CCN(c3ccccc3C)CC2)n(-c2ccc(F)cc2)n1 [3/147]	
0.198	1.5	Cc1cc(C(=O)N2CCN(c3cccc(C)c3C)CC2)n(-c2ccc(F)cc2)n1 [3/148]	
0.0055	1.1	Cc1cccc(N2CCN(C(=O)c3cc(C)nn3-c3ccccc3)CC2)n1 [3/150]	
0.0221	1.7	Cc1cc(C(=O)N2CCN(c3ccc(C)c(Cl)c3)CC2)n(-c2ccccc2)n1 [3/151]	
0.0063	0.8	Cc1cc(C(=O)N2CCN(c3cccc(F)c3)CC2)n(-c2ccccc2)n1 [3/152]	
0.0224	2.2	Cc1cc(C(=O)N2CCN(c3cccnc3)CC2)n(-c2ccccc2)n1 [3/153]	
0.0041	1.2	O=C(c1ccnn1-c1ccccc1)N1CCN(c2cccc(Cl)c2)CC1 [Example 5, [4-(3-Chlorophenyl)piperazin-1-yl](2-phenyl-2H-pyrazol-3-yl)methanone]	
0.0001	1.5	Cc1cc(C(=O)N2CCN(c3cc(Cl)cc(Cl)c3)CC2)n(-c2ccccc2)n1 [Example E2, [4-(3,5-Dichlorophenyl)piperazin-1-yl](5-methyl-2-phenyl-2H-pyrazol-3-yl)methanone]	
0.0047	1.3	Cc1cc(C(=O)N2CCN(c3cccc(Cl)n3)CC2)n(-c2ccccc2)n1 [Example E4, [4-(6-Chloropyrid-2-yl)piperazin-1-yl](5-methyl-2-phenyl-2H-pyrazol-3-yl)-methanone]	
0.003	0.8	Cc1cc(C(=O)N2CCN(c3cccc([N+](=O)[O-])c3)CC2)n(-c2ccccc2)n1 [Example E5, [4-(3-Nitrophenyl)piperazin-1-yl](5-methyl-2-phenyl-2H-pyrazol-3-yl)-methanone]	
0.011	1.4	Cc1cc(C(=S)N2CCN(c3cccc(Cl)c3)CC2)n(-c2ccccc2)n1 [Example E7, [4-(3-Chlorophenyl)piperazin-1-yl](5-methyl-2-phenyl-2H-pyrazol-3-yl)-methanethione]	
0.0142	1	Cc1cc(C(=O)N2CCN(c3cccc(O)c3)CC2)n(-c2ccccc2)n1 [Example E13, [4-(3-Hydroxyphenyl)piperazin-1-yl](5-methyl-2-phenyl-2H-pyrazol-3-yl)-methanone]	
0.0085	1.5	Cc1cc(C(=O)N2CCN(c3ccnc4ccccc34)CC2)n(-c2ccccc2)n1 [Example E17, (5-Methyl-2-phenyl-2H-pyrazol-3-yl)(4-quinolin-4-ylpiperazin-1-yl)methanone]	
0.0595	1.2	CC(=O)Nc1cccc(N2CCN(C(=O)c3cc(C)nn3-c3ccccc3)CC2)c1 [Example E18, N-{3-[4-(5-methyl-2-phenyl-2H-pyrazole-3-carbonyl)piperazin-1-yl]phenyl}-acetamide]	

Compound	IC50 (HCT116 cells; [1]) [µM]	IC50 (tubulin) [µM]	IC50 (HCT116 cells; HCT-116, 48 hours at 37° C.) [µM]
Cc1cc(CN2CCN(c3cccc(Cl)c3)CC2)n(-c2ccccc2)n1 [Example E14, [4-(3-chlorophenyl)piperazin-1-yl](5-methyl-2-phenyl-2H-pyrazol-3-yl)methane]		12	3.08
